Patent publication US20220242905A1, “MODIFIED PEPTIDES AND THEIR USE” (UNIVERSITE DE MONTPELLIER, priority 2018, published 2022)
Values after ≈ are worked out from the molar mass of the structure shown.

Legend:
[1] = test system: Candida albicans ATCC10231; assay type: cell-based; conditions: for Minimal inhibitory concentration (MIC) C. albicans ATCC10231: ATCC10231, 48 h; for Minimal bactericidal concentration (MBC) C. albicans ATCC10231: value in bracket, 48 h at 25° C.
Protocol: (§1) Minimal inhibitory concentration (MIC) values and minimal bactericidal concentration (MBCs) values for ATC-peptides 1-9 were determined against both Gram-positive (Bacillus subtilis, Staphylococcus aureus, Enterococcus faecalis) and Gram negative (Escherichia coli, Pseudomonas aeruginosa) bacteria as well as a yeast (Candida albicans). Experiments were conducted in triplicate. For B. subtilis, compounds were tested against vegetative cells and spores, which are particularly resistant to the action of antimicrobial agents. MIC and MBCs values are shown Table 12. In addition, haemolytic properties of 1-9 were tested.
(§2) the antimicrobial performances of oligomers antimicrobial activity were determined on three Gram positive strains (Bacillus subtilis ATCC6633, Staphylococcus aureus ATCC6538 and Enterococcus faecalis ATCC29121), two Gram negative strains (Escherichia coli ATCC8739 and Pseudomonas aeruginosa ATCC9027) and one fungal strain (Candida albicans ATCC10231). Each bacterial strain was allowed to grow overnight on Trypto-Caseine-Soja agar (TSA, Difco) at 37° C., C. albicans was allowed to grow 48 h on a sabouraud medium (Difco) at 20-25° C. A fresh suspension at 10^8 CFU·mL^−1 was then prepared by inoculating the micro-organisms in a Tryptone-Sel solution. Concentration was monitored by measuring transmitted light at 620 nm or with the Mac Farland turbidity standard (Mac Farland=0.5≈10^8 CFU·mL^−1). Each suspension was then diluted in a doubly strong Mueller-Hinton (MH, Difco) broth to […]. Two-fold serial dilutions (100 μL) of oligomers in sterile water (pH adjusted between 7.4 and 7.7 with HCl and NaOH solutions) were mixed with microbial inoculum (100 μL) in NUNC sterile clear polystyrene flat-bottom 96-well plates. A 1/1 v/v oligomer solution/water mixture was used a negative control and a 1/1 vv water/microbial inoculum mixture was used a positive control. Plates were then incubated 24 h at 37° C. for bacteria and 48 h at 25° C. for C. albicans. Minimum Inhibitory Concentration (MIC) was determined as the lowest concentration inhibiting the growth of each micro-organism. […] Minimum Bactericidal Concentration (MBC) was determined as the lowest concentration that prevent the growth of more than one colony. Each assay was performed in a triple duplicate for each strain.

[2] = test system: Pseudomonas aeruginosa ATCC9027; assay type: cell-based; conditions: for Minimal inhibitory concentration (MIC) P. aeruginosa ATCC9027: ATCC9027, 24 h; for Minimal bactericidal concentration (MBC) P. aeruginosa ATCC9027: value in bracket, 24 h at 37° C.
Protocol: as §1, §2

[3] = test system: Staphylococcus aureus ATCC6538; assay type: cell-based; conditions: for Minimal inhibitory concentration (MIC) S. aureus ATCC6538: ATCC6538, 24 h; for Minimal bactericidal concentration (MBC) S. aureus ATCC6538: value in bracket, 24 h at 37° C.
Protocol: as §1, §2

[4] = test system: Bacillus subtilis ATCC6633; assay type: cell-based; conditions: for Minimal inhibitory concentration (MIC) B. subtilis ATCC6633: ATCC6633, 24 h; for Minimal bactericidal concentration (MBC) B. subtilis ATCC6633: value in bracket, 24 h at 37° C.
Protocol: as §1, §2

[5] = test system: Escherichia coli ATCC8739; assay type: cell-based; conditions: for Minimal inhibitory concentration (MIC) E. coli ATCC8739: ATCC8739, 24 h; for Minimal bactericidal concentration (MBC) E. coli ATCC8739: value in bracket, 24 h at 37° C.
Protocol: as §1, §2

[6] = test system: Enterococcus faecalis ATCC29121; assay type: cell-based; conditions: for Minimal inhibitory concentration (MIC) E. faecalis ATCC29121: ATCC29121, 24 h; for Minimal bactericidal concentration (MBC) E. faecalis ATCC29121: value in bracket, 24 h at 37° C.
Protocol: as §1, §2

Hemolytic activity = assay type: cell-based, Human; conditions: human, human red blood cell suspension; hRBCs, 1 h at 37° C.; read-out: HD50, dose required to lyse 50% of the red blood cells
Protocol: Procedure for measurements of hemolytic activity: Human red blood cells (hRBCs) were washed multiple times with phosphate-buffered saline (PBS) until a clear supernatant was obtained. The hRBCs suspension was made in PBS with a Packed Cell Volume of 5%, Two-fold serial dilutions (50 μL) of oligomers in sterile water (pH adjusted between 7.4 and 7.7 with HCl and NaOH solutions) were mixed with hRBCs suspension (50 μL) in clear polystyrene optical-bottom 96-well plates which were filmed and incubated for 1 h at 37° C. A 1/1 vv hRBCs solution/PBS mixture was used a negative control and a 1/1 vv hRBCs solution/1% (TRIS 50 mM pH=8.0+1% SDS) mixture was used a positive control for 100% hemolysis. The mixture was then centrifuged at 1500 g for 10 min at 5° C. Next, 50 μL of the supernatant was transferred into a second plate, and the absorbance was read at 490 nm using a BioRad iMark plate reader. The hemolysis percentage was calculated by the formula % hemolysis=[Absorbance (sample)−Absorbance (negative control)]/[Absorbance (positive control)−Absorbance (negative control)]×100%. Each assay was performed in a double duplicate. Hemolytic activity was determined or estimated with the Hemolytic Concentration leading to 50% of lysis of hRBCs (HC50).

Row | SMILES | Minimal inhibitory concentration (MIC) C. albicans ATCC10231 [1] [µM] | Minimal inhibitory concentration (MIC) P. aeruginosa ATCC9027 [2] [µM] | Minimal inhibitory concentration (MIC) S. aureus ATCC6538 [3] [µM] | Minimal inhibitory concentration (MIC) B. subtilis ATCC6633 [4] [µM] | Minimal inhibitory concentration (MIC) E. coli ATCC8739 [5] [µM] | Minimal inhibitory concentration (MIC) E. faecalis ATCC29121 [6] [µM] | HC50 at 1 h (Hemolytic activity) [µM] | Minimal bactericidal concentration (MBC) C. albicans ATCC10231 [1] | Minimal bactericidal concentration (MBC) P. aeruginosa ATCC9027 [2] | Minimal bactericidal concentration (MBC) S. aureus ATCC6538 [3] | Minimal bactericidal concentration (MBC) B. subtilis ATCC6633 [4] | Minimal bactericidal concentration (MBC) E. coli ATCC8739 [5] | Minimal bactericidal concentration (MBC) E. faecalis ATCC29121 [6]
1 | CC(=O)N[C@@H](CCCCN)c1nc(C)sc1C(=O)N[C@@H](C)c1nc(CCCCN)sc1C(=O)N[C@@H](C)c1nc(C)sc1C(N)=O [Oligomer 1] | >150 | >150 | >150 | >150 | >150 | >150 | > 100 |  |  |  |  |  | 
2 | CC(=O)N[C@@H](CCCCN)c1nc(C)sc1C(=O)N[C@@H](C)c1nc(CCCCN)sc1C(=O)N[C@@H](C)c1nc(C)sc1C(=O)N[C@@H](CCCCN)c1nc(C)sc1C(=O)N[C@@H](C)c1nc(CCCCN)sc1C(=O)N[C@@H](C)c1nc(C)sc1C(N)=O [Oligomer 2] | 62.5 (≈ 81 µg/mL) | >150 | >150 | 30 (≈ 38.9 µg/mL) | >150 | >150 | > 100 |  |  |  |  |  | 
3 | CC(=O)N[C@@H](CCCCN)c1nc(C)sc1C(=O)N[C@@H](C)c1nc(CCCCN)sc1C(=O)N[C@@H](C)c1nc(C)sc1C(=O)N[C@@H](CCCCN)c1nc(C)sc1C(=O)N[C@@H](C)c1nc(CCCCN)sc1C(=O)N[C@@H](C)c1nc(C)sc1C(=O)N[C@@H](CCCCN)c1nc(C)sc1C(=O)N[C@@H](C)c1nc(CCCCN)sc1C(=O)N[C@@H](C)c1nc(C)sc1C(N)=O [Oligomer 3] | 10.4 (≈ 19.9 µg/mL) | 42 (≈ 80.5 µg/mL) | >150 | 0.8 (≈ 1.53 µg/mL) | 5.2 (≈ 9.96 µg/mL) | >150 | > 100 | (10.4) μM | (83) μM | (>150) μM | (0.8) μM | (7.3) μM | (>150) μM
4 | CC(=O)N[C@@H](CCCCN)c1nc(C)sc1C(=O)N[C@@H](C)c1nc(CCCCN)sc1C(=O)N[C@@H](C)c1nc(C)sc1C(=O)N[C@@H](CCCCN)c1nc(C)sc1C(=O)N[C@@H](C)c1nc(CCCCN)sc1C(=O)N[C@@H](C)c1nc(C)sc1C(=O)N[C@@H](CCCCN)c1nc(C)sc1C(=O)N[C@@H](C)c1nc(CCCCN)sc1C(=O)N[C@@H](C)c1nc(C)sc1C(=O)N[C@@H](CCCCN)c1nc(C)sc1C(=O)N[C@@H](C)c1nc(CCCCN)sc1C(=O)N[C@@H](C)c1nc(C)sc1C(N)=O [Oligomer 4] | 3.7 (≈ 9.38 µg/mL) | 3.9 (≈ 9.88 µg/mL) | 26 (≈ 65.9 µg/mL) | 0.5 (≈ 1.27 µg/mL) | 1.6 (≈ 4.06 µg/mL) | >150 | > 100 | (3.7) μM | (5.2) μM | (57) μM | (0.5) μM | (1.6) μM | (>150) μM

Second part, led by results:

Row | Minimal inhibitory concentration (MIC) C. albicans ATCC10231 [1] [µM] | Minimal inhibitory concentration (MIC) P. aeruginosa ATCC9027 [2] [µM] | Minimal inhibitory concentration (MIC) S. aureus ATCC6538 [3] [µM] | Minimal inhibitory concentration (MIC) B. subtilis ATCC6633 [4] [µM] | Minimal inhibitory concentration (MIC) E. coli ATCC8739 [5] [µM] | Minimal inhibitory concentration (MIC) E. faecalis ATCC29121 [6] [µM] | SMILES | HC50 at 1 h (Hemolytic activity) [µM] | Minimal bactericidal concentration (MBC) C. albicans ATCC10231 [1] | Minimal bactericidal concentration (MBC) P. aeruginosa ATCC9027 [2] | Minimal bactericidal concentration (MBC) S. aureus ATCC6538 [3] | Minimal bactericidal concentration (MBC) B. subtilis ATCC6633 [4] | Minimal bactericidal concentration (MBC) E. coli ATCC8739 [5] | Minimal bactericidal concentration (MBC) E. faecalis ATCC29121 [6]
5 | 6.2 (≈ 13.4 µg/mL) | 6.2 (≈ 13.4 µg/mL) | 5.2 (≈ 11.3 µg/mL) | 1.3 (≈ 2.82 µg/mL) | 8.3 (≈ 18 µg/mL) | 6.2 (≈ 13.4 µg/mL) | CC(=O)N[C@@H](CCCCN)c1nc(C)sc1C(=O)N[C@@H](CC(C)C)c1nc(CCCCN)sc1C(=O)N[C@@H](C)c1nc(CC(C)C)sc1C(=O)N[C@@H](CCCCN)c1nc(C)sc1C(=O)N[C@@H](CC(C)C)c1nc(CCCCN)sc1C(=O)N[C@@H](C)c1nc(CC(C)C)sc1C(=O)N[C@@H](CCCCN)c1nc(C)sc1C(=O)N[C@@H](CC(C)C)c1nc(CCCCN)sc1C(=O)N[C@@H](C)c1nc(CC(C)C)sc1C(N)=O [Oligomer 6] | 23 | (6.2) μM | (6.2) μM | (5.2) μM |  | (8.3) μM | (6.2) μM
6 | 25 (≈ 71.8 µg/mL) | 14.6 (≈ 41.9 µg/mL) | 16.7 (≈ 47.9 µg/mL) | 4.2 (≈ 12.1 µg/mL) | 14.6 (≈ 41.9 µg/mL) | 10.4 (≈ 29.9 µg/mL) | CC(=O)N[C@@H](CCCCN)c1nc(C)sc1C(=O)N[C@@H](CC(C)C)c1nc(CCCCN)sc1C(=O)N[C@@H](C)c1nc(CC(C)C)sc1C(=O)N[C@@H](CCCCN)c1nc(C)sc1C(=O)N[C@@H](CC(C)C)c1nc(CCCCN)sc1C(=O)N[C@@H](C)c1nc(CC(C)C)sc1C(=O)N[C@@H](CCCCN)c1nc(C)sc1C(=O)N[C@@H](CC(C)C)c1nc(CCCCN)sc1C(=O)N[C@@H](C)c1nc(CC(C)C)sc1C(=O)N[C@@H](CCCCN)c1nc(C)sc1C(=O)N[C@@H](CC(C)C)c1nc(CCCCN)sc1C(=O)N[C@@H](C)c1nc(CC(C)C)sc1C(N)=O [Oligomer 7] | > 100 | (25) μM | (19) μM | (25) μM | (6.2) μM | (16.5) μM | (12.5) μM
